Results on four compounds are retold here after the NIST ThermoML archive (doi:10.1016/j.jct.2012.02.023).

Numbers after ± are expanded uncertainties.

The conditions of the series: Liquid; for speed of sound / mass density: 101.33 kPa; for speed of sound: Sing-around technique in a fixed-path interferometer; for mass density: Vibrating tube method; for vapor or sublimation pressure: Closed cell (Static) method.

Consider `CCCC[n+]1cccc(C)c1.F[B-](F)(F)F` [1-butyl-3-methylpyridinium tetrafluoroborate], for which the speed of sound (usually the propagation velocity of pressure waves in the medium) (293.15 K) is on record as 1598.5 ± 1.6 m/s, the speed of sound (303.15 K) is 1573.8 ± 1.6 m/s, the speed of sound (313.15 K) is on record as 1550.1 ± 1.6 m/s and the speed of sound (323.15 K) was 1527 ± 1.6 m/s. Further, the mass density (as a rule, the mass of a sample divided by its volume) (293.15 K) is given as 1185.65 ± 0.38 kg/m3; the mass density (303.15 K) is reported as 1178.86 ± 0.38 kg/m3; the mass density (313.15 K) amounted to 1172.11 ± 0.37 kg/m3; the mass density (323.15 K) is given as 1165.37 ± 0.37 kg/m3.
Turning to `CCCC[n+]1ccc(C)cc1.F[B-](F)(F)F` [1-butyl-4-methylpyridinium tetrafluoroborate], the speed of sound is 1611.8 ± 1.6 m/s (293.15 K), 1586.7 ± 1.6 m/s (303.15 K), 1562.8 ± 1.6 m/s (313.15 K) and 1539.3 ± 1.6 m/s (323.15 K). Besides, the mass density reads like this: (293.15 K) 1185.92 ± 0.38 kg/m3; (303.15 K) 1179.12 ± 0.38 kg/m3; (313.15 K) 1172.12 ± 0.37 kg/m3; (323.15 K) 1165.52 ± 0.37 kg/m3.
For `CCO` [ethanol], the speed of sound by setting is: (293.15 K) 1160.1 ± 1.2 m/s; (303.15 K) 1127.2 ± 1.2 m/s; (313.15 K) 1093.6 ± 1.2 m/s; (323.15 K) 1060.4 ± 1.2 m/s. Also, the mass density runs as follows: (293.15 K) 789.481 ± 0.15 kg/m3; (303.15 K) 781.302 ± 0.15 kg/m3; (313.15 K) 772.569 ± 0.15 kg/m3; (323.15 K) 763.647 ± 0.16 kg/m3. The vapor or sublimation pressure (as a rule, the pressure of vapour in equilibrium with the condensed phase) is, setting by setting: (303.15 K) 10.47 ± 0.045 kPa; (323.15 K) 29.57 ± 0.067 kPa.
With `CO` [methanol], the speed of sound (293.15 K) is 1118.8 ± 1.2 m/s, the speed of sound (303.15 K) was 1086 ± 1.1 m/s, the speed of sound (313.15 K) was determined as 1053.5 ± 1.1 m/s and the speed of sound (323.15 K) was 1021.5 ± 1.1 m/s. In addition, the mass density amounted to 791.243 ± 0.12 kg/m3 (293.15 K), 781.813 ± 0.13 kg/m3 (303.15 K), 772.287 ± 0.13 kg/m3 (313.15 K) and 762.628 ± 0.14 kg/m3 (323.15 K). Besides, the “vapor or sublimation pressure” value runs as follows: (303.15 K) 21.93 ± 0.08 kPa; (323.15 K) 55.78 ± 0.12 kPa.
